Reference: patent publication US6566512B1, “ARV1, a protein involved in sterol uptake and sterol homeostasis in the budding yeast, S-cerevisiae, and a functional human ARV1” (The Trustees of Columbia University in the City of New York, priority 2000, dated 2003)

System: arv1D cells
Assay: Polyene (nystatin) sensitivity of arv1 deletion yeast, growth on plates
Assay type: cell-based, Saccharomyces cerevisiae
Details: for polyene sensitivity of yeast strains deleted for the ARV1 gene (arv1Δ): concentration not given
Method: FIGS. 1A-1C arv1 mutant phenotypes. FIG. 1A, Temperature and nystatin sensitivity. 5-fold dilutions of cells were grown as indicated for three days on YEPD +/−5 μg/ml nystatin (10 mg/ml in propylene glycol). FIG. 1B, Characterization of sterol levels. Cells were labeled with [^3H]acetate and lipids extracted and analyzed by TLC. Data from three independent assays of two strains of each genotype is expressed as mean ratio over wild-type (±SEM; statistical significance by paired t-tests, *p<0.05 or **p<0.01 compared to wild-type). Hatched bars wild-type, gray bars=arv1D. FIG. 1C, Subcellular sterol accumulation. Cell membrane preparations were subjected to subcellular fractionation. Lipid composition is presented as ratio of [^3H]acetate in sterol and [^14C]oleate in phospholipids (top panels). Hatched bars=wild-type, gray bars=arv1D. Note scale differences between the upper panels. Fractions were characterized with specific antibodies against the plasma membrane ATPase (Pma1p, provided by Amy Chang), and 100 kDa subunit of integral vacuolar membrane H^+ATPase (Vph1p, Molecular Probes). Bottom panels show densitometry analysis of western blots expressed as percentage of total arbitrary units (Pma1p; closed boxes, Vph1p; open triangles). The integral ER membrane protein, dolichol phosphate mannose synthase cofractionated with Vph1p.
Mutations in sterol trafficking genes may alter membrane sterol levels. arv1D cells are sensitive to nystatin (FIG. 1a), a polyene antibiotic that disrupts membranes in part by interaction with sterols^10. Nystatin partitioning into membranes is sensitive to both sterol organization and levels^10. […] Iodine staining of sterol mass following extraction and thin layer chromatography (TLC) analysis reflected these differences (not shown).

| Compound | polyene sensitivity of yeast strains deleted for the ARV1 gene (arv1Δ) | sensitivity of arv1D cells to nystatin (growth, FIG. 1a) (5-fold dilutions of cells grown three days on YEPD +/- 5 μg/ml nystatin, compared with wild-type) |
| --- | --- | --- |
| C[C@@H]1[C@H](O)[C@@H](C)/C=C/C=C/C=C/C=C/C=C/C=C/C=C/[C@H](O[C@@H]2O[C@H](C)[C@@H](O)[C@H](N)[C@@H]2O)C[C@@H]2O[C@](O)(C[C@@H](O)C[C@@H](O)[C@H](O)CC[C@@H](O)C[C@@H](O)CC(=O)O[C@H]1C)C[C@H](O)[C@H]2C(=O)O [amphotericin B] | sensitive |  |
| C[C@@H]1[C@H](O)[C@@H](C)/C=C/C=C/CC/C=C/C=C/C=C/C=C/C(O[C@H]2O[C@H](C)[C@@H](O)[C@H](N)[C@@H]2O)CC2O[C@](O)(CC(O)C(O)CCC(O)CC(O)CC(O)CC(=O)O[C@H]1C)CC(O)C2C(=O)O (stereo partly shown) [nystatin] | sensitive | sensitive |
| CCCCC[C@@H](O)[C@H]1C(=O)O[C@H](C)[C@@H](O)/C=C/C=C/C=C/C=C/C=C(\C)[C@@H](O)C[C@H](O)C[C@H](O)C[C@H](O)C[C@H](O)C[C@H](O)C[C@@H]1O [filipin] | sensitive |  |
